From the supplement of paper PMC13380429

Tests used:
HepG2 [1] = experiment: drug sensitivity score (DSS) for viability; higher = more toxic; extreme values may be limits of the assay; settings: 72 h
Vero E6 [2] = experiment: as above; settings: 72 h
Calu-3 [3] = experiment: as above; settings: 72 h
U2OS [4] = experiment: as above; settings: 72 h
Caco-2 [5] = experiment: as above; settings: 72 h
[6] = system: A549-ACE2 infected with SARS-CoV-2; experiment: cell count relative to DMSO; higher = less toxic; settings: 24 h
A549-ACE2 [7] = experiment: drug-induced phospholipidosis relative to tamoxifen; higher = more phospholipidosis
HepG2 [8] = experiment: cell viability relative to DMSO; higher = less toxic; settings: 72 h
Vero E6 [9] = experiment: as above; settings: 72 h
Calu-3 [10] = experiment: as above; settings: 72 h
U2OS [11] = experiment: as above; settings: 72 h
Caco-2 [12] = experiment: as above; settings: 72 h
[13] = system: A549-ACE2 infected with SARS-CoV-2; experiment: SARS-CoV-2 infection rate relative to DMSO; higher = more infection; settings: 24 h
A549-ACE2 [14] = experiment: phospholipidosis EC50; higher = less potent phospholipidosis inducer
HepG2 [15] = experiment: relative viability EC50 (midpoint between 100% and the lowest measured viability); higher = less toxic; settings: 72 h
Vero E6 [16] = experiment: as above; settings: 72 h
Calu-3 [17] = experiment: as above; settings: 72 h
U2OS [18] = experiment: as above; settings: 72 h
Caco-2 [19] = experiment: as above; settings: 72 h
[20] = system: A549-ACE2 infected with SARS-CoV-2; experiment: morphology score (similarity to uninfected cells); higher = more like uninfected cells; settings: 24 h

c1cc2c(cc1C1CCCCC1)c1c3n2CCNC3CCC1 (stereo not drawn) [tetrindole]
Settings | drug sensitivity score | relative viability EC50 [µM]
Caco-2 [5] | 5.4 | –
Caco-2 [19] | – | 3.05
Calu-3 [3] | 7.4 | –
Calu-3 [17] | – | 2.22
HepG2 [1] | 8.3 | –
HepG2 [15] | – | 1.88
U2OS [4] | 4.3 | –
U2OS [18] | – | 3.11
Vero E6 [2] | 6.4 | –
Vero E6 [16] | – | 2.68

Settings | SARS-CoV-2 infection rate [%] | cell count [%] | cell viability [%] | morphology score | phospholipidosis EC50 [µM]
A549-ACE2 [14], 24 h | – | – | – | – | 6.5
A549-ACE2 [14], 48 h | – | – | – | – | 2.52
A549-ACE2 [14], 72 h | – | – | – | – | 3.19
Caco-2 [12], 1 nM | – | – | 101 | – | –
Caco-2 [12], 10 nM | – | – | 92.3 | – | –
Caco-2 [12], 100 nM | – | – | 92.9 | – | –
Caco-2 [12], 1000 nM | – | – | 98.5 | – | –
Caco-2 [12], 10000 nM | – | – | 6.9 | – | –
Calu-3 [10], 1 nM | – | – | 91.3 | – | –
Calu-3 [10], 10 nM | – | – | 94.9 | – | –
Calu-3 [10], 100 nM | – | – | 93.8 | – | –
Calu-3 [10], 1000 nM | – | – | 88.7 | – | –
Calu-3 [10], 10000 nM | – | – | 0.8 | – | –
HepG2 [8], 1 nM | – | – | 101 | – | –
HepG2 [8], 10 nM | – | – | 107 | – | –
HepG2 [8], 100 nM | – | – | 95.8 | – | –
HepG2 [8], 1000 nM | – | – | 83.2 | – | –
HepG2 [8], 10000 nM | – | – | 0.5 | – | –
U2OS [11], 1 nM | – | – | 94.8 | – | –
U2OS [11], 10 nM | – | – | 104 | – | –
U2OS [11], 100 nM | – | – | 97.6 | – | –
U2OS [11], 1000 nM | – | – | 99.5 | – | –
U2OS [11], 10000 nM | – | – | 24.1 | – | –
Vero E6 [9], 1 nM | – | – | 97.9 | – | –
Vero E6 [9], 10 nM | – | – | 91.4 | – | –
Vero E6 [9], 100 nM | – | – | 97.1 | – | –
Vero E6 [9], 1000 nM | – | – | 93.9 | – | –
Vero E6 [9], 10000 nM | – | – | 1.3 | – | –
[6], 0.1 µM | – | 102 | – | – | –
[6], 0.3 µM | – | 101 | – | – | –
[6], 1 µM | – | 102 | – | – | –
[6], 3 µM | – | 117 | – | – | –
[13], 0.1 µM | 102 | – | – | – | –
[13], 0.3 µM | 96 | – | – | – | –
[13], 1 µM | 77 | – | – | – | –
[13], 3 µM | 28 | – | – | – | –
[20], 0.1 µM | – | – | – | 0.02 | –
[20], 0.3 µM | – | – | – | 0.07 | –
[20], 1 µM | – | – | – | 0.29 | –
[20], 3 µM | – | – | – | 0.87 | –

drug-induced phospholipidosis [%], A549-ACE2 [7]
Settings | 0.3 µM | 0.833333 µM | 3.33333 µM | 6.66667 µM | 10 µM | 30 µM
24 h | 5.21 | 10.2 | 71.6 | 84.5 | 84.9 | 215
48 h | 7.95 | 8.82 | 80.8 | 101 | 115 | –
72 h | 7.78 | 3.52 | 72.2 | 101 | 122 | –

Nc1ncnc2c1c(-c1cccc(OCc3ccccc3)c1)cn2C1CC(CN2CCCC2)C1 (stereo in doubt) [NVP-ADW742]
Settings | drug sensitivity score | relative viability EC50 [µM]
Caco-2 [5] | 7 | –
Caco-2 [19] | – | 1.23
Calu-3 [3] | 2.9 | –
Calu-3 [17] | – | 3.32
HepG2 [1] | 8.3 | –
HepG2 [15] | – | 1.19
U2OS [4] | 4.9 | –
U2OS [18] | – | 1.75
Vero E6 [2] | 2.4 | –

Settings | SARS-CoV-2 infection rate [%] | cell count [%] | cell viability [%] | morphology score | phospholipidosis EC50 [µM]
A549-ACE2 [14], 24 h | – | – | – | – | 5.36
A549-ACE2 [14], 72 h | – | – | – | – | 3.26
Caco-2 [12], 1 nM | – | – | 98.9 | – | –
Caco-2 [12], 10 nM | – | – | 96.1 | – | –
Caco-2 [12], 100 nM | – | – | 98.4 | – | –
Caco-2 [12], 1000 nM | – | – | 74.6 | – | –
Caco-2 [12], 10000 nM | – | – | 34.1 | – | –
Calu-3 [10], 1 nM | – | – | 99.2 | – | –
Calu-3 [10], 10 nM | – | – | 93.1 | – | –
Calu-3 [10], 100 nM | – | – | 107 | – | –
Calu-3 [10], 1000 nM | – | – | 102 | – | –
Calu-3 [10], 10000 nM | – | – | 44.2 | – | –
HepG2 [8], 1 nM | – | – | 89.3 | – | –
HepG2 [8], 10 nM | – | – | 97.4 | – | –
HepG2 [8], 100 nM | – | – | 101 | – | –
HepG2 [8], 1000 nM | – | – | 69.9 | – | –
HepG2 [8], 10000 nM | – | – | 23.2 | – | –
U2OS [11], 1 nM | – | – | 99.1 | – | –
U2OS [11], 10 nM | – | – | 98 | – | –
U2OS [11], 100 nM | – | – | 99 | – | –
U2OS [11], 1000 nM | – | – | 88.9 | – | –
U2OS [11], 10000 nM | – | – | 43.7 | – | –
Vero E6 [9], 1 nM | – | – | 99.9 | – | –
Vero E6 [9], 10 nM | – | – | 95.6 | – | –
Vero E6 [9], 100 nM | – | – | 97.6 | – | –
Vero E6 [9], 1000 nM | – | – | 98.1 | – | –
Vero E6 [9], 10000 nM | – | – | 58.2 | – | –
[6], 0.1 µM | – | 104 | – | – | –
[6], 0.3 µM | – | 93 | – | – | –
[6], 1 µM | – | 82 | – | – | –
[6], 3 µM | – | 101 | – | – | –
[13], 0.1 µM | 98 | – | – | – | –
[13], 0.3 µM | 94 | – | – | – | –
[13], 1 µM | 75 | – | – | – | –
[13], 3 µM | 30 | – | – | – | –
[20], 0.1 µM | – | – | – | 0.14 | –
[20], 0.3 µM | – | – | – | 0.2 | –
[20], 1 µM | – | – | – | 0.46 | –
[20], 3 µM | – | – | – | 0.75 | –

drug-induced phospholipidosis [%], A549-ACE2 [7]
Settings | 0.3 µM | 0.833333 µM | 3.33333 µM | 6.66667 µM | 10 µM | 30 µM
24 h | 8.61 | 13.3 | 31.4 | 113 | 145 | 158
48 h | 8.35 | 9.24 | 33.7 | 54.9 | – | –
72 h | 7.79 | 5.46 | 31.5 | 52.2 | – | –
